Measured values from patent publication US10604555B2, “GIP derivatives and uses thereof” (priority 2018, dated 2020).
Where two headings read alike, the source gives them in different places. Side-chain parts run from the residue outwards. [ ]: non-standard residue; d: D form. The star is where a group is joined. C20 diacid = O=C(O)CCCCCCCCCCCCCCCCCCC(=O)*; Nle = CCCC[C@H](N)C(=O)O; AEEA = NCCOCCOCC(=O)O; Aib = CC(C)(N)C(=O)O

Tests used:
[1] = ThT fibrillation assay (physical stability); format: physicochemical; conditions: 250 μM, pH 7.4, 37° C., 45 hours of incubation
Procedure: The Thioflavin T assay was performed as outlined in Schlein (2017), AAPS J, 19(2), 397-408.
This has traditionally been measured by visual inspection of the sample. However, that kind of measurement is very cumbersome and depending on the observer. Therefore, the application of a small molecule indicator probe is much more advantageous. Thioflavin T (ThT) is such a probe and has a distinct fluorescence signature when binding to fibrils [Naiki et al. (1989) Anal. Biochem. 177, 244-249; LeVine (1999) Methods. Enzymol. 309, 274-284].
The time course for fibril formation can be described by a sigmoidal curve with the following expression [Nielsen et al. (2001) Biochemistry 40, 6036-6046]:
Here, F is the ThT fluorescence at the time t. The constant t0 is the time needed to reach 50% of maximum fluorescence. The two important parameters describing fibril formation are the lag-time calculated by t0−2τ and the apparent rate constant kapp 1/τ.
Few of those intermediates nucleate to form a template onto which further intermediates may assembly and the fibrillation proceeds. The lag-time corresponds to the interval in which the critical mass of nucleus is built up and the apparent rate constant is the rate with which the fibril itself is formed.
Samples are prepared freshly before each assay. The drug substance was solved with 250 μM of the GIP derivative in 8 mM phosphate, 14 mg/mL propylene glycol, 58 mM phenol, pH 7.4. The pH of the sample was adjusted to the desired value using appropriate amounts of concentrated NaOH and HCl. Thioflavin T was added to the samples from a stock solution in H2O to a final concentration of 1 μM.
Sample aliquots of 200 μl were placed in each well of a 96 well microtiter plate (Packard OptiPlate™-96, white polystyrene). Four replica of each sample (corresponding to one test condition) was placed in one column of wells. The plate was sealed with Scotch Pad (Qiagen).
Incubation, shaking and measurement of the ThT fluorescence emission were done in a Fluoroskan Ascent FL fluorescence platereader (Thermo Labsystems). […] Fluorescence measurement was done using excitation through a 444 nm filter and measurement of emission through a 485 nm filter.
Each run was initiated by incubating the plate at the assay temperature for 10 min. The plate was measured every 20 minutes for a desired period of time. Between each measurement, the plate was shaken and heated as described.
After completion of the ThT assay the replica of each sample was pooled and centrifuged at 20000 rpm for 30 minutes at 18° C. The supernatant was filtered through a 0.22 μm filter and an aliquot was transferred to a HPLC vial. The concentration of the filtered sample relative to the initial sample (in percentage) was reported as the recovery.
The measurement points were saved in Microsoft Excel format for further processing and curve drawing and fitting was performed using GraphPad Prism. […] The data points were a mean of the four replica and shown with standard deviation error bars. Only data obtained in the same experiment (i.e. samples on the same plate) were presented in the same graph ensuring a relative measure of fibrillation between experiments.
The data set may be fitted to Eq. (1).

[2] = Chemical stability: HMWP formation by SEC-MS; format: physicochemical; conditions: 37° C., 4 weeks, 250 μM, pH 7.4
Procedure: The aim of this study is to determine the chemical stability of GIP derivative compositions. As a measure of stability of the GIP derivative composition, the formation of high molecular weight peptide formation (% HMWP) as a function of time was analysed by size-exclusion chromatography (SEC-MS). Further, the purity loss of the GIP derivative compositions was measured by LCMS. Samples for chemical stability assays were freshly prepared before each assay. […] The pH of the sample was adjusted to the desired value using appropriate amounts of concentrated NaOH and HCl. […] Formation of covalent oligomers (HMWPs) was analysed and identified by a SEC-MS method. […] The LC system was coupled to both a TUV detector operated at 215 nm, 10 Hz and a high resolution QToF mass spectrometer from Waters (Synapt G2S) operated in positive ion mode and m/z range of 100 to 4000 with normal resolution setting. Lock mass correction against Leu-Enkephalin was done every 31 sec. Spectra were processed in MassLynx version 4.1 and MaxEnt deconvoluted.

[3] = Chemical stability: purity loss by LCMS; format: physicochemical; conditions: 37° C., 4 weeks, 250 μM, pH 7.4
Procedure: The aim of this study is to determine the chemical stability of GIP derivative compositions. As a measure of stability of the GIP derivative composition, the formation of high molecular weight peptide formation (% HMWP) as a function of time was analysed by size-exclusion chromatography (SEC-MS). Further, the purity loss of the GIP derivative compositions was measured by LCMS. Samples for chemical stability assays were freshly prepared before each assay. […] The pH of the sample was adjusted to the desired value using appropriate amounts of concentrated NaOH and HCl. […] The column oven was kept at 55° C. […] The solvents were pumped from a binary solvent manager system and mixed on the high pressure side in a mixer with a volume of 50 μl. The gradient and flow can be seen in table 4: [table] A Flow-through-needle auto sampler at 8° C. was used to inject 1 μl of each sample. The effluent passed through a tunable UV detector (TUV) tuned to 215 nm. The outlet from the UV detector passed to the electrospray source of the mass spectrometer. The capillary was held at 3 kV and dry nitrogen gas was purged at a flow of 750 I/h and a temperature of 250° C. The source block was kept at 120° C. and the large bore cone was flushed with nitrogen at 50 I/h with standard electrode potentials on the rest of the instrument. The MS was operated in high resolution mode with a nominal resolution of 35000. The ToF analyser was operated in ADC mode with an m/z window from 100-2000.

[4] = cited from earlier work
[5] = format: physicochemical; conditions: pH 7.4

ThT Assay Lag time [1] [h] | HMWP formation (%/month) [2] [%/month] | Purity loss (%/month) [3] [%/month] | Molecule | half-life of hGIP(1-42) measured in man ([4]; Deacon et al., J. Clin. Endocrinol. & Metab.) [min] | half-life of hGIP(1-42) measured in man ([4]; Meier et al., Diabetes) | solubility at given pH [5]
0.33 | 2.0 | 73.1 | CC[C@H](C)[C@H](NC(=O)[C@H](CO)NC(=O)[C@H](Cc1ccc(O)cc1)NC(=O)[C@H](CC(=O)O)NC(=O)[C@H](CO)NC(=O)[C@@H](NC(=O)[C@H](Cc1ccccc1)NC(=O)[C@@H](NC(=O)CNC(=O)[C@H](CCC(=O)O)NC(=O)[C@H](C)NC(=O)[C@@H](N)Cc1ccc(O)cc1)[C@@H](C)O)[C@@H](C)CC)C(=O)N[C@@H](C)C(=O)N[C@@H](CCSC)C(=O)N[C@@H](CC(=O)O)C(=O)N[C@@H](CCCCN)C(=O)N[C@H](C(=O)N[C@@H](Cc1c[nH]cn1)C(=O)N[C@@H](CCC(N)=O)C(=O)N[C@@H](CCC(N)=O)C(=O)N[C@@H](CC(=O)O)C(=O)N[C@@H](Cc1ccccc1)C(=O)N[C@H](C(=O)N[C@@H](CC(N)=O)C(=O)N[C@@H](Cc1c[nH]c2ccccc12)C(=O)N[C@@H](CC(C)C)C(=O)N[C@@H](CC(C)C)C(=O)N[C@@H](C)C(=O)N[C@@H](CCC(N)=O)C(=O)N[C@@H](CCCCN)C(=O)NCC(=O)N[C@@H](CCCCN)C(=O)N[C@@H](CCCCN)C(=O)N[C@@H](CC(N)=O)C(=O)N[C@@H](CC(=O)O)C(=O)N[C@@H](Cc1c[nH]c2ccccc12)C(=O)N[C@@H](CCCCN)C(=O)N[C@@H](Cc1c[nH]cn1)C(=O)N[C@@H](CC(N)=O)C(=O)N[C@H](C(=O)N[C@H](C(=O)N[C@@H](CCC(N)=O)C(=O)O)[C@@H](C)O)[C@@H](C)CC)C(C)C)[C@@H](C)CC [hGIP(1-42), reference compound] | ~7 | about 5 min | –
– | – | – | N{1}-acetyl,N{Epsilon-24}-[2-[2-[2-[[2-[2-[2-[[4-[(19-carboxynonadecanoylamino)methyl]cyclohexanecarbonyl]amino]ethoxy]ethoxy]acetyl]amino]ethoxy]ethoxy]acetyl]-[D-Tyr1,Aib2,Nle14,Arg18,Lys24,Pro31]-hGIP(1-31) amide (Ac-[dY][Aib]EGTFISDYSIA[Nle]DKIRQQDFVK([AEEA-AEEA-4‑(aminomethyl)cyclohexanecarbonyl-C20 diacid])WLLAQKP-NH2) [Compound 44] | – | – | **Compound not soluble at given pH.
